# Source: publication PMC5218480 (PLoS ONE, 2017)
# Tested on: MV-4-11 cells
# Test: Gene expression microarray analysis (Affymetrix PrimeView) and GSEA
# Format: cell-based, human
# Parameters: RFU PODN (11730768_x_at) / Fold change /veh PODN (11730768_x_at) / RFU LINC00158 (11744669_a_at) / Fold change /veh LINC00158 (11744669_a_at) / RFU DUSP10 (11751237_a_at) / Fold change /veh DUSP10 (11751237_a_at) / RFU ID3 (11757404_x_at) / Fold change /veh ID3 (11757404_x_at) / RFU PLEKHG5 (11737974_s_at) / Fold change /veh PLEKHG5 (11737974_s_at) / RFU LRRC4B (11730491_at) / Fold change /veh LRRC4B (11730491_at) / RFU GIMAP4 (11747438_a_at) / Fold change /veh GIMAP4 (11747438_a_at) / RFU KRT8 (11758183_x_at) / Fold change /veh KRT8 (11758183_x_at) / RFU CNN1 (11734310_a_at) / Fold change /veh CNN1 (11734310_a_at) / RFU VPS37D (11726825_at) / Fold change /veh VPS37D (11726825_at) / RFU C10orf10 (11716522_x_at) / Fold change /veh C10orf10 (11716522_x_at) / RFU KIR2DL2 /// KIR2DL4 /// KIR2DL5A /// KIR2DL5B /// KIR2DS1 /// KIR2DS2 /// KIR2DS3 /// KIR2DS4 /// KIR3DL3 /// KIR3DL3 /// KIR3DS1 (11738374_at) / Fold change /veh KIR2DL2 /// KIR2DL4 /// KIR2DL5A /// KIR2DL5B /// KIR2DS1 /// KIR2DS2 /// KIR2DS3 /// KIR2DS4 /// KIR3DL3 /// KIR3DL3 /// KIR3DS1 (11738374_at) / RFU C1QL1 (11718748_at) / Fold change /veh C1QL1 (11718748_at) / RFU TMPRSS4 (11747572_a_at) / Fold change /veh TMPRSS4 (11747572_a_at) / RFU HAMP (11756126_x_at) / Fold change /veh HAMP (11756126_x_at) / RFU RNFT2 (11725882_a_at) / Fold change /veh RNFT2 (11725882_a_at) / RFU NR4A2 (11747474_a_at) / Fold change /veh NR4A2 (11747474_a_at) / RFU ABCC12 (11746883_a_at) / Fold change /veh ABCC12 (11746883_a_at) / RFU TMEM136 (11760407_x_at) / Fold change /veh TMEM136 (11760407_x_at) / RFU CLDN22 /// WWC2 (11732394_at) / Fold change /veh CLDN22 /// WWC2 (11732394_at) / RFU HLA-DPB1 (11760878_x_at) / Fold change /veh HLA-DPB1 (11760878_x_at) / RFU SPINT1 (11716480_a_at) / Fold change /veh SPINT1 (11716480_a_at) / RFU GAP43 (11754022_s_at) / Fold change /veh GAP43 (11754022_s_at) / RFU A4GNT (11735810_at) / Fold change /veh A4GNT (11735810_at) / RFU PRB3 (11715151_x_at) / Fold change /veh PRB3 (11715151_x_at) / RFU TUBB4B (11761932_at) / Fold change /veh TUBB4B (11761932_at) / RFU CAPN14 (11732068_a_at) / Fold change /veh CAPN14 (11732068_a_at) / RFU TMCC2 (11721928_a_at) / Fold change /veh TMCC2 (11721928_a_at) / RFU IRGQ (11745062_a_at) / Fold change /veh IRGQ (11745062_a_at) / RFU FAM174B (11720279_a_at) / Fold change /veh FAM174B (11720279_a_at) / RFU TMPRSS4 (11748680_a_at) / Fold change /veh TMPRSS4 (11748680_a_at) / RFU FAM212B (11763350_a_at) / Fold change /veh FAM212B (11763350_a_at) / RFU PLEKHG5 (11743358_a_at) / Fold change /veh PLEKHG5 (11743358_a_at) / RFU ZSCAN30 (11745921_a_at) / Fold change /veh ZSCAN30 (11745921_a_at) / RFU CMKLR1 (11741424_a_at) / Fold change /veh CMKLR1 (11741424_a_at) / RFU LOC101060620 /// MAPK8IP1 (11723275_at) / Fold change /veh LOC101060620 /// MAPK8IP1 (11723275_at) / RFU SPTSSB (11747773_x_at) / Fold change /veh SPTSSB (11747773_x_at) / RFU PRSS12 (11739890_at) / Fold change /veh PRSS12 (11739890_at) / RFU BIN1 (11741810_x_at) / Fold change /veh BIN1 (11741810_x_at) / RFU WNT11 (11732464_a_at) / Fold change /veh WNT11 (11732464_a_at) / RFU C10orf10 (11716521_a_at) / Fold change /veh C10orf10 (11716521_a_at) / RFU C5orf56 (11738089_at) / Fold change /veh C5orf56 (11738089_at) / RFU CYB561 (11721691_x_at) / Fold change /veh CYB561 (11721691_x_at) / RFU ANKRD19P (11752326_a_at) / Fold change /veh ANKRD19P (11752326_a_at) / RFU OR2T12 /// OR2T33 /// OR2T8 (11738714_s_at) / Fold change /veh OR2T12 /// OR2T33 /// OR2T8 (11738714_s_at) / RFU VCAN (11748164_a_at) / Fold change /veh VCAN (11748164_a_at) / RFU JSRP1 (11732532_at) / Fold change /veh JSRP1 (11732532_at) / RFU KRTAP10-11 (11738290_x_at) / Fold change /veh KRTAP10-11 (11738290_x_at) / RFU MYO3A (11730013_a_at) / Fold change /veh MYO3A (11730013_a_at) / RFU EBF3 (11725865_a_at) / Fold change /veh EBF3 (11725865_a_at) / RFU CAMK2N1 (11719241_x_at) / Fold change /veh CAMK2N1 (11719241_x_at) / RFU C5orf56 (11738088_a_at) / Fold change /veh C5orf56 (11738088_a_at) / RFU OLFML3 (11715873_a_at) / Fold change /veh OLFML3 (11715873_a_at) / RFU LOC100653217 /// NTM (11731650_a_at) / Fold change /veh LOC100653217 /// NTM (11731650_a_at) / RFU MAPK11 (11762145_a_at) / Fold change /veh MAPK11 (11762145_a_at) / RFU FIZ1 (11724087_x_at) / Fold change /veh FIZ1 (11724087_x_at) / RFU OASL (11726364_x_at) / Fold change /veh OASL (11726364_x_at) / RFU SOX15 (11748057_x_at) / Fold change /veh SOX15 (11748057_x_at) / RFU CD79A (11719716_a_at) / Fold change /veh CD79A (11719716_a_at) / RFU HIST1H1D (11736915_at) / Fold change /veh HIST1H1D (11736915_at) / RFU CASKIN2 (11723855_a_at) / Fold change /veh CASKIN2 (11723855_a_at) / RFU LOC730098 (11760151_x_at) / Fold change /veh LOC730098 (11760151_x_at) / RFU OR4N2 (11742367_at) / Fold change /veh OR4N2 (11742367_at) / RFU PRRT2 (11749266_a_at) / Fold change /veh PRRT2 (11749266_a_at) / RFU SNX32 (11753110_a_at) / Fold change /veh SNX32 (11753110_a_at) / RFU CDHR5 (11726645_a_at) / Fold change /veh CDHR5 (11726645_a_at) / RFU RCAN1 (11760418_a_at) / Fold change /veh RCAN1 (11760418_a_at) / RFU FAM167A (11723789_a_at) / Fold change /veh FAM167A (11723789_a_at) / RFU FAM26E (11764081_at) / Fold change /veh FAM26E (11764081_at) / RFU ISYNA1 (11749810_s_at) / Fold change /veh ISYNA1 (11749810_s_at) / RFU ACY1 (11761880_at) / Fold change /veh ACY1 (11761880_at) / RFU 11764098_at / Fold change /veh 11764098_at / RFU SAMD14 (11745864_x_at) / Fold change /veh SAMD14 (11745864_x_at) / RFU NPB (11741838_a_at) / Fold change /veh NPB (11741838_a_at) / RFU TMPRSS6 (11731388_a_at) / Fold change /veh TMPRSS6 (11731388_a_at) / RFU KRTAP10-2 (11738614_at) / Fold change /veh KRTAP10-2 (11738614_at) / RFU ARHGAP8 /// PRR5-ARHGAP8 (11727945_x_at) / Fold change /veh ARHGAP8 /// PRR5-ARHGAP8 (11727945_x_at) / RFU KRTAP5-7 /// NADSYN1 (11734609_at) / Fold change /veh KRTAP5-7 /// NADSYN1 (11734609_at) / RFU RASL12 (11751679_a_at) / Fold change /veh RASL12 (11751679_a_at) / RFU CDKN2B (11736163_a_at) / Fold change /veh CDKN2B (11736163_a_at) / RFU PRF1 (11729649_at) / Fold change /veh PRF1 (11729649_at) / RFU, ZNF638 /// ZNF638-IT1 / Fold change vs veh, ZNF638 /// ZNF638-IT1 / RFU, PANK3 / Fold change vs veh, PANK3 / RFU, SH3YL1 / Fold change vs veh, SH3YL1 / RFU, ZEB2 / Fold change vs veh, ZEB2 / RFU, NRIP1 / Fold change vs veh, NRIP1 / RFU, PTTG1IP / Fold change vs veh, PTTG1IP / RFU, CAPN2 / Fold change vs veh, CAPN2 / RFU, MED14 / Fold change vs veh, MED14 / RFU, SNORA58 / Fold change vs veh, SNORA58 / RFU, C1orf63 / Fold change vs veh, C1orf63 / RFU, LRRFIP1 / Fold change vs veh, LRRFIP1 / RFU, NDUFAF7 / Fold change vs veh, NDUFAF7 / RFU, SLC12A2 / Fold change vs veh, SLC12A2 / RFU, IBTK / Fold change vs veh, IBTK / RFU, ESF1 / Fold change vs veh, ESF1 / Fold change vs veh, TMEM50B / RFU, TAOK1 / Fold change vs veh, TAOK1 / RFU, ACBD3 / Fold change vs veh, ACBD3 / RFU, TMA16 / Fold change vs veh, TMA16 / RFU, RWDD3 / Fold change vs veh, RWDD3 / RFU, BCAT1 / Fold change vs veh, BCAT1 / RFU, EDEM3 / Fold change vs veh, EDEM3 / RFU, TMEM33 / Fold change vs veh, TMEM33 / RFU, WDR75 / Fold change vs veh, WDR75 / RFU, AHCTF1 / Fold change vs veh, AHCTF1 / RFU, TFRC / Fold change vs veh, TFRC / RFU, ZDHHC17 / Fold change vs veh, ZDHHC17 / RFU, NOM1 / Fold change vs veh, NOM1 / RFU, ARL8B / Fold change vs veh, ARL8B / RFU, ZBTB11 / Fold change vs veh, ZBTB11 / RFU, TAMM41 / Fold change vs veh, TAMM41 / RFU, KIAA1704 /// LOC100996395 / Fold change vs veh, KIAA1704 /// LOC100996395 / RFU, ING1 / Fold change vs veh, ING1 / RFU, TRMT61B / Fold change vs veh, TRMT61B / RFU, FUBP3 / Fold change vs veh, FUBP3 / RFU, TP53 / Fold change vs veh, TP53 / RFU, TNKS2 / Fold change vs veh, TNKS2 / RFU, ZFP14 / Fold change vs veh, ZFP14 / RFU, ACTR2 / Fold change vs veh, ACTR2 / RFU, PPP3R1 / Fold change vs veh, PPP3R1 / RFU, PIK3R1 / Fold change vs veh, PIK3R1 / RFU, HNRNPA1 / Fold change vs veh, HNRNPA1 / RFU, RNF170 / Fold change vs veh, RNF170 / RFU, ZNF28 / Fold change vs veh, ZNF28 / RFU, RNGTT / Fold change vs veh, RNGTT / RFU, OGT / Fold change vs veh, OGT / RFU, BRD1 / Fold change vs veh, BRD1 / RFU, MARS / Fold change vs veh, MARS / RFU, ZNF655 / Fold change vs veh, ZNF655 / RFU, FAHD1 / Fold change vs veh, FAHD1 / RFU, BDP1 / Fold change vs veh, BDP1 / RFU, LRRCC1 / Fold change vs veh, LRRCC1 / RFU, ARID1A / Fold change vs veh, ARID1A / RFU, ZNF146 / Fold change vs veh, ZNF146 / RFU, ZNF330 / Fold change vs veh, ZNF330 / RFU, GPN3 / Fold change vs veh, GPN3 / RFU, C9orf123 / Fold change vs veh, C9orf123 / RFU, N4BP2L2 / Fold change vs veh, N4BP2L2 / RFU, ARFIP1 / Fold change vs veh, ARFIP1 / RFU, FAM179B / Fold change vs veh, FAM179B / RFU, BCL10 / Fold change vs veh, BCL10 / RFU, UHRF1BP1L / Fold change vs veh, UHRF1BP1L / RFU, BET1 / Fold change vs veh, BET1 / RFU, CNOT2 / Fold change vs veh, CNOT2 / RFU, ZNF268 / Fold change vs veh, ZNF268 / Fold change vs veh, ZNF507 / RFU, DGCR2 / Fold change vs veh, DGCR2 / RFU, WDSUB1 / Fold change vs veh, WDSUB1 / Fold change vs veh, HSP90B1 /// MIR3652 / RFU, ADSS / Fold change vs veh, ADSS / RFU, GK / Fold change vs veh, GK / RFU, ZNF148 / Fold change vs veh, ZNF148 / RFU, TAF9 / Fold change vs veh, TAF9 / RFU, SLC1A5 / Fold change vs veh, SLC1A5 / RFU, SLMO2 / Fold change vs veh, SLMO2 / RFU, ABCC4 / Fold change vs veh, ABCC4 / RFU, LOC101060439 /// RAP1B / Fold change vs veh, LOC101060439 /// RAP1B / RFU, RFX7 / Fold change vs veh, RFX7 / RFU, GTPBP10 / Fold change vs veh, GTPBP10 / RFU, CNEP1R1 / Fold change vs veh, CNEP1R1 / RFU, BIVM-ERCC5 /// ERCC5 / Fold change vs veh, BIVM-ERCC5 /// ERCC5 / RFU, ILF3 / Fold change vs veh, ILF3 / RFU 11762660_at / Fold change /veh 11762660_at / RFU VCAN (11757783_s_at) / Fold change /veh VCAN (11757783_s_at) / RFU DDX43 (11728927_at) / Fold change /veh DDX43 (11728927_at) / RFU KRT8 (11758188_x_at) / Fold change /veh KRT8 (11758188_x_at) / RFU NKD1 (11759106_at) / Fold change /veh NKD1 (11759106_at) / RFU SRD5A1 (11742802_a_at) / Fold change /veh SRD5A1 (11742802_a_at) / RFU TPSAB1 /// TPSB2 (11721975_s_at) / Fold change /veh TPSAB1 /// TPSB2 (11721975_s_at) / RFU GSTM3 (11746129_a_at) / Fold change /veh GSTM3 (11746129_a_at) / RFU IL23R (11737362_x_at) / Fold change /veh IL23R (11737362_x_at) / RFU TMEM51 (11727254_a_at) / Fold change /veh TMEM51 (11727254_a_at) / RFU PIWIL2 (11732686_x_at) / Fold change /veh PIWIL2 (11732686_x_at) / RFU ORM1 (11744905_x_at) / Fold change /veh ORM1 (11744905_x_at) / RFU CCDC152 (11743942_at) / Fold change /veh CCDC152 (11743942_at) / RFU ECM1 (11717891_a_at) / Fold change /veh ECM1 (11717891_a_at) / RFU IL23R (11748794_a_at) / Fold change /veh IL23R (11748794_a_at) / RFU TNFAIP8L3 (11732012_x_at) / Fold change /veh TNFAIP8L3 (11732012_x_at) / RFU MBOAT4 (11741988_at) / Fold change /veh MBOAT4 (11741988_at) / RFU 11764193_at / Fold change /veh 11764193_at / RFU TMEM53 (11763286_at) / Fold change /veh TMEM53 (11763286_at) / RFU MAGEB2 (11727129_at) / Fold change /veh MAGEB2 (11727129_at) / RFU TMEM200A (11744735_a_at) / Fold change /veh TMEM200A (11744735_a_at) / RFU CCDC152 (11751479_a_at) / Fold change /veh CCDC152 (11751479_a_at) / RFU FAM211A (11726209_a_at) / Fold change /veh FAM211A (11726209_a_at) / RFU RGS16 (11746705_a_at) / Fold change /veh RGS16 (11746705_a_at) / RFU VCAN (11755009_s_at) / Fold change /veh VCAN (11755009_s_at) / RFU RHOB (11743442_s_at) / Fold change /veh RHOB (11743442_s_at) / RFU RGS16 (11720943_a_at) / Fold change /veh RGS16 (11720943_a_at) / RFU RGS16 (11720944_at) / Fold change /veh RGS16 (11720944_at) / RFU, VPS4B / Fold change vs veh, VPS4B / RFU, CREB1 / Fold change vs veh, CREB1 / RFU, DNAJC13 / Fold change vs veh, DNAJC13 / RFU, GNAQ / Fold change vs veh, GNAQ / RFU, CDK5R1 / Fold change vs veh, CDK5R1 / RFU, ZRANB3 / Fold change vs veh, ZRANB3 / RFU, CUL4A / Fold change vs veh, CUL4A / RFU, CCNY / Fold change vs veh, CCNY / RFU, UFL1 / Fold change vs veh, UFL1 / RFU, COG3 / Fold change vs veh, COG3 / RFU, DIAPH2 / Fold change vs veh, DIAPH2 / RFU, SKA2 / Fold change vs veh, SKA2 / RFU, AFF3 / Fold change vs veh, AFF3 / RFU, LMF1 / Fold change vs veh, LMF1 / RFU, IPO11 / Fold change vs veh, IPO11 / RFU, DFFB / Fold change vs veh, DFFB / RFU, FOXP1 / Fold change vs veh, FOXP1 / RFU, CARD8 / Fold change vs veh, CARD8 / RFU, STRN3 / Fold change vs veh, STRN3 / RFU, ADK / Fold change vs veh, ADK / RFU, RASSF2 / Fold change vs veh, RASSF2 / RFU, WIPF1 / Fold change vs veh, WIPF1 / RFU, LARP1B / Fold change vs veh, LARP1B / RFU, RASA1 / Fold change vs veh, RASA1 / RFU, RB1 / Fold change vs veh, RB1 / RFU, PPFIA1 / Fold change vs veh, PPFIA1 / RFU, MAT2A / Fold change vs veh, MAT2A / RFU, CCT5 / Fold change vs veh, CCT5 / RFU, WDR92 / Fold change vs veh, WDR92 / RFU, CUX1 / Fold change vs veh, CUX1 / RFU, TTC7A / Fold change vs veh, TTC7A / RFU, TMEM135 / Fold change vs veh, TMEM135 / RFU, DEPTOR / Fold change vs veh, DEPTOR / RFU, CPM / Fold change vs veh, CPM / RFU, DNAJB6 / Fold change vs veh, DNAJB6 / RFU, CACNA2D3 / Fold change vs veh, CACNA2D3 / RFU, DTX4 / Fold change vs veh, DTX4 / RFU, TFCP2 / Fold change vs veh, TFCP2 / RFU, GMCL1 /// GMCL1P1 / Fold change vs veh, GMCL1 /// GMCL1P1 / RFU, AEBP2 / Fold change vs veh, AEBP2 / RFU, SNHG1 /// SNORD22 /// SNORD25 /// SNORD26 /// SNORD27 /// SNORD28 /// SNORD29 /// SNORD31 / Fold change vs veh, SNHG1 /// SNORD22 /// SNORD25 /// SNORD26 /// SNORD27 /// SNORD28 /// SNORD29 /// SNORD31 / Fold change (Aza/veh), C12orf56 (ProbeSet 11735607_a_at) / Fold change (ACY-1035/veh), C12orf56 (ProbeSet 11735607_a_at) / Fold change (Aza/veh), FGFR1OP (ProbeSet 11751329_s_at) / Fold change (ACY-1035/veh), FGFR1OP (ProbeSet 11751329_s_at) / Fold change (Aza/veh), VPS36 (ProbeSet 11739960_a_at) / Fold change (ACY-1035/veh), VPS36 (ProbeSet 11739960_a_at) / RFU SYPL1 (11715823_x_at) / Fold change /veh SYPL1 (11715823_x_at) / RFU IGFBP7 (11715501_s_at) / Fold change /veh IGFBP7 (11715501_s_at) / RFU REEP3 (11722064_at) / Fold change /veh REEP3 (11722064_at) / RFU IGLL1 (11728026_x_at) / Fold change /veh IGLL1 (11728026_x_at): dose or concentration left out as unconfirmed
# Settings: ProbeSet 11730252_s_at; LIST B
structure (smiles),measurement,value
Nc1ncn([C@@H]2O[C@H](CO)[C@@H](O)[C@H]2O)c(=O)n1 [azacitidine],"Fold change vs veh, AHCTF1",0.94
